Results from ChEMBL document CHEMBL1201862, “PubChem BioAssay data set” (2004).
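Five concentrations, 48 hours, 96-well plates. GI50 is the concentration that inhibits growth by half.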 Calls of active or inactive are those of the source. No stated cut-off is given here; in the data, active = GI50 up to about 1.1 µM and inactive = higher.

Experiments:
Assay in all cases: inhibition of tumour cell growth, NCI panel, 48 h
U-251 = tested on: U-251
IGROV-1 = tested on: IGROV-1
A549 = tested on: A549
SW-620 = tested on: SW-620
UO-31 = tested on: UO-31
CCRF-CEM = tested on: CCRF-CEM
UACC-257 = tested on: UACC-257
NCI-H460 = tested on: NCI-H460
CAKI-1 = tested on: CAKI-1
HOP-92 = tested on: HOP-92
NCI/ADR-RES = tested on: NCI/ADR-RES
RPMI-8226 = tested on: RPMI-8226
HT-29 = tested on: HT-29
SF-295 = tested on: SF-295
HCT-116 = tested on: HCT-116
LOX IMVI = tested on: LOX IMVI
UACC-62 = tested on: UACC-62
SF-268 = tested on: SF-268
SK-MEL-5 = tested on: SK-MEL-5
SNB-19 = tested on: SNB-19

SMILES | GI50 (U-251) | GI50 (IGROV-1) | GI50 (A549) | GI50 (SW-620) | GI50 (UO-31) | GI50 (CCRF-CEM) | GI50 (UACC-257) | GI50 (NCI-H460) | GI50 (CAKI-1) | GI50 (HOP-92) | GI50 (NCI/ADR-RES) | GI50 (RPMI-8226) | GI50 (HT-29) | GI50 (SF-295) | GI50 (HCT-116) | GI50 (LOX IMVI) | GI50 (UACC-62) | GI50 (SF-268) | GI50 (SK-MEL-5) | GI50 (SNB-19)
C[C@H](CN1CC(=O)NC(=O)C1)N1CC(=O)NC(=O)C1 | 58.2 µM (inactive) | > 100 µM (inactive) | > 70.5 µM (inactive) | > 47.3 µM (inactive) | 20 µM (inactive) | 34.3 µM (inactive) | > 100 µM (inactive) | 9.31 µM (inactive) | > 100 µM (inactive) | > 100 µM (inactive) | > 100 µM (inactive) | > 53.2 µM (inactive) | > 100 µM (inactive) | > 100 µM (inactive) | 82.4 µM (inactive) | > 100 µM (inactive) | > 100 µM (inactive) | > 96.2 µM (inactive) | > 100 µM (inactive) | 50.4 µM (inactive)
CCOC(=O)N1CCN(C(=O)Nc2cccc3ccccc23)CC1 | > 10 µM (inactive) | > 10 µM (inactive) | > 10 µM (inactive) | > 10 µM (inactive) | > 10 µM (inactive) | > 10 µM (inactive) |  | > 10 µM (inactive) | > 10 µM (inactive) |  | > 10 µM (inactive) | > 10 µM (inactive) | > 10 µM (inactive) | > 10 µM (inactive) | > 10 µM (inactive) | > 10 µM (inactive) | > 10 µM (inactive) | > 10 µM (inactive) | > 10 µM (inactive) | > 10 µM (inactive)
OCC(CO)CC1COc2ccccc2O1 (centres undefined) | > 10 µM (inactive) | > 10 µM (inactive) | > 10 µM (inactive) | > 10 µM (inactive) | > 10 µM (inactive) | > 10 µM (inactive) |  | > 10 µM (inactive) | > 10 µM (inactive) |  | > 10 µM (inactive) | > 10 µM (inactive) | > 10 µM (inactive) | > 10 µM (inactive) | > 10 µM (inactive) | > 10 µM (inactive) | > 10 µM (inactive) | > 10 µM (inactive) | > 10 µM (inactive) | > 10 µM (inactive)
O=C1C2=C(C3=NCCc4c[nH]c1c43)C1(C=C(Br)C(O)C(Br)=C1)CCN2 (centres undefined) | 2.26 µM (inactive) | 0.881 µM (active) | 3.15 µM (inactive) | 0.541 µM (active) | 11.1 µM (inactive) | 1.96 µM (inactive) | 0.614 µM (active) | 2.33 µM (inactive) | 4.4 µM (inactive) | 2.92 µM (inactive) | 0.421 µM (active) | 1.9 µM (inactive) | 0.312 µM (active) | 2.48 µM (inactive) | 0.625 µM (active) | 0.736 µM (active) | 0.851 µM (active) | 0.966 µM (active) | 1.07 µM (active) | 11.1 µM (inactive)
CC(C)C1OC(=O)/C=C/C=C/C=C/C=C/C=C/CC(O)C(C)C(O)CC(O)CC(O)CC(O)CC(O)CC(O)CC(O)/C=C/C1C (centres undefined) | > 100 µM (inactive) | > 100 µM (inactive) | > 100 µM (inactive) | > 100 µM (inactive) | > 100 µM (inactive) | > 100 µM (inactive) | > 100 µM (inactive) | > 100 µM (inactive) |  | > 100 µM (inactive) | > 100 µM (inactive) | > 100 µM (inactive) | > 100 µM (inactive) | > 100 µM (inactive) |  |  | > 100 µM (inactive) | > 100 µM (inactive) |  | > 100 µM (inactive)
CNC(=O)SCC(NC(=O)CCC(N)C(=O)O)C(=O)NCC(=O)O (centres undefined) | > 86.7 µM (inactive) | > 100 µM (inactive) | > 100 µM (inactive) | > 100 µM (inactive) | > 100 µM (inactive) | > 50 µM (inactive) | > 100 µM (inactive) | > 100 µM (inactive) | > 100 µM (inactive) | > 68.4 µM (inactive) | > 100 µM (inactive) | 42.3 µM (inactive) | > 84.5 µM (inactive) | > 100 µM (inactive) | > 84.7 µM (inactive) | 67.9 µM (inactive) | 98.9 µM (inactive) | > 80.4 µM (inactive) | > 100 µM (inactive) | > 100 µM (inactive)
CC(C)=CCc1c(C)cc2cc3c(c(O)c2c1O)C(=O)C=C(O)C3(CC=C(C)C)C/C=C(\C)CO (centres undefined) | 29.6 µM (inactive) | 38.1 µM (inactive) | 33.3 µM (inactive) | 39.8 µM (inactive) | 29 µM (inactive) | 11.5 µM (inactive) | 43.7 µM (inactive) | 27.4 µM (inactive) | 46.3 µM (inactive) | 33.2 µM (inactive) | 47.9 µM (inactive) | 20.7 µM (inactive) | 37.2 µM (inactive) | 45.2 µM (inactive) | 37 µM (inactive) | 38.5 µM (inactive) | 32.3 µM (inactive) | 36.7 µM (inactive) | 16.4 µM (inactive) | 39.8 µM (inactive)
CCOC(=O)C1(C(=O)OCC)CSC1 | > 100 µM (inactive) |  | > 100 µM (inactive) | > 100 µM (inactive) | > 100 µM (inactive) | > 100 µM (inactive) | > 100 µM (inactive) | 0.263 µM (active) |  | > 100 µM (inactive) | > 100 µM (inactive) |  | > 100 µM (inactive) | > 100 µM (inactive) | > 100 µM (inactive) | > 100 µM (inactive) |  | > 100 µM (inactive) | > 100 µM (inactive) | > 100 µM (inactive)
N#Cc1c(NC(=S)Nc2ccc(Cl)cc2)sc2c1CCCC2 | > 100 µM (inactive) | > 100 µM (inactive) |  | > 100 µM (inactive) | > 100 µM (inactive) |  | > 100 µM (inactive) |  | > 100 µM (inactive) |  | 65.3 µM (inactive) | 24.2 µM (inactive) | > 100 µM (inactive) | > 100 µM (inactive) | > 100 µM (inactive) | > 100 µM (inactive) | > 100 µM (inactive) | > 100 µM (inactive) | > 100 µM (inactive) | > 100 µM (inactive)
CC(=O)OC/C=C\Cn1nc(Br)c(=O)[nH]c1=O | 10.5 µM (inactive) | 15 µM (inactive) | 16.7 µM (inactive) | 14.3 µM (inactive) | 16.4 µM (inactive) | 5.24 µM (inactive) | 15.5 µM (inactive) | 13.2 µM (inactive) | 10.7 µM (inactive) | 13 µM (inactive) | 17.3 µM (inactive) | 25.9 µM (inactive) |  |  |  | 6.75 µM (inactive) |  | 14.9 µM (inactive) | 14.6 µM (inactive) | 18.7 µM (inactive)
FC(F)(F)C1=NC(=NNc2nnc(-c3ccccc3)c(-c3ccccc3)n2)N=C(C(F)(F)F)C1 | > 29 µM (inactive) | 21.5 µM (inactive) | 13.3 µM (inactive) | 27.3 µM (inactive) | 4.11 µM (inactive) | 7.29 µM (inactive) | 23.9 µM (inactive) | 7.71 µM (inactive) | 27.2 µM (inactive) | 15.8 µM (inactive) | 67.6 µM (inactive) | 12.2 µM (inactive) | 16.6 µM (inactive) | 8.2 µM (inactive) | 11.6 µM (inactive) | 12.7 µM (inactive) | 3.54 µM (inactive) | 12.8 µM (inactive) | 15.8 µM (inactive) | 35 µM (inactive)
ICC1CCCO1 (centres undefined) | > 100 µM (inactive) | > 100 µM (inactive) | > 100 µM (inactive) | > 100 µM (inactive) |  | > 100 µM (inactive) | > 100 µM (inactive) | > 100 µM (inactive) | > 100 µM (inactive) | > 100 µM (inactive) |  | > 100 µM (inactive) | > 100 µM (inactive) | > 100 µM (inactive) | > 100 µM (inactive) | > 100 µM (inactive) |  | > 100 µM (inactive) | > 100 µM (inactive) | > 100 µM (inactive)
NC(=O)Nc1ccc(C(=O)NCCCNC(=O)c2ccc(NC(N)=O)cc2)cc1 | > 100 µM (inactive) | > 100 µM (inactive) | > 100 µM (inactive) | > 100 µM (inactive) | > 100 µM (inactive) | > 100 µM (inactive) | > 100 µM (inactive) | > 100 µM (inactive) | > 100 µM (inactive) | > 100 µM (inactive) | > 100 µM (inactive) | > 100 µM (inactive) | > 100 µM (inactive) |  | > 100 µM (inactive) | > 100 µM (inactive) | > 100 µM (inactive) | > 100 µM (inactive) | > 100 µM (inactive) | > 100 µM (inactive)
CC(=O)OC1CCn2c1nc1cc([N+](=O)[O-])c(C)cc12 (centres undefined) | > 100 µM (inactive) | > 100 µM (inactive) | > 100 µM (inactive) | > 100 µM (inactive) | > 100 µM (inactive) | > 100 µM (inactive) | > 100 µM (inactive) | > 100 µM (inactive) | > 100 µM (inactive) | > 100 µM (inactive) | > 100 µM (inactive) | > 100 µM (inactive) | > 100 µM (inactive) | > 100 µM (inactive) | > 100 µM (inactive) | > 100 µM (inactive) | > 100 µM (inactive) | > 100 µM (inactive) | > 100 µM (inactive) | > 100 µM (inactive)
O=C1C=C(N2CC2)C(=O)C=C1N1CC1 | 0.229 µM (active) | 0.753 µM (active) |  | 0.0891 µM (active) | 0.104 µM (active) | 0.0291 µM (active) | 0.265 µM (active) | 0.0401 µM (active) | < 0.0148 µM (active) | 0.44 µM (active) | 0.757 µM (active) | 0.227 µM (active) | 0.204 µM (active) | 0.155 µM (active) |  | 0.0849 µM (active) | 0.178 µM (active) | 0.155 µM (active) | 0.101 µM (active) | 0.904 µM (active)
